Source: patent US10266537B2, “3-acetylenyl-pyrazole-pyrimidine derivative, and preparation method therefor and uses thereof” (Si Chuan University, priority 2015, dated 2019)

What was measured:
Experiment in all cases: Kinase inhibition assay (KinaseProfiler, 33P-ATP)
Flt1 = Flt1 (Homo sapiens (Human), UniProt P17948); assay type: biochemical
cKit (D816H) = cKit (D816H) (Homo sapiens (Human), UniProt P10721, D816H); assay type: biochemical; conditions: cKit(D816H)(h), read-out: The percentage of the remaining active protein
EphA5 = EphA5 (Homo sapiens (Human), UniProt P54756); assay type: biochemical; conditions: EphA5(h), read-out: The percentage of the remaining active protein
ErbB4 = ErbB4 (Homo sapiens (Human), UniProt Q15303); assay type: biochemical; conditions: ErbB4(h), read-out: The percentage of the remaining active protein
TAO2 = TAO2 (Homo sapiens (Human), UniProt Q9UL54); assay type: biochemical; conditions: TAO2(h), read-out: The percentage of the remaining active protein
Abl(m) = Abl(m) (Mus musculus (Mouse), UniProt P00520); assay type: biochemical; conditions: read-out: The percentage of the remaining active protein
ALK1(h) = ALK1(h) (Homo sapiens (Human), UniProt P37023); assay type: biochemical; conditions: read-out: The percentage of the remaining active protein
ALK6(h) = ALK6(h) (Homo sapiens (Human), UniProt O00238); assay type: biochemical; conditions: read-out: The percentage of the remaining active protein
CaMKIIβ(h) = CaMKIIβ(h) (Homo sapiens (Human), UniProt Q13554); assay type: biochemical; conditions: read-out: The percentage of the remaining active protein
CaMKIδ(h) = CaMKIδ(h) (Homo sapiens (Human), UniProt Q8IU85); assay type: biochemical; conditions: read-out: The percentage of the remaining active protein
CK1γ2(h) = CK1γ2(h) (Homo sapiens (Human), UniProt P78368); assay type: biochemical; conditions: read-out: The percentage of the remaining active protein
CK1γ3(h) = CK1γ3(h) (Homo sapiens (Human), UniProt Q9Y6M4); assay type: biochemical; conditions: read-out: The percentage of the remaining active protein
cKit(D816V)(h) = cKit(D816V)(h) (Homo sapiens (Human), UniProt P10721, D816V); assay type: biochemical; conditions: read-out: The percentage of the remaining active protein
DCAMKL3(h) = DCAMKL3(h) (Homo sapiens (Human), UniProt Q9C098); assay type: biochemical; conditions: read-out: The percentage of the remaining active protein
DYRK2(h) = DYRK2(h) (Homo sapiens (Human), UniProt Q92630); assay type: biochemical; conditions: read-out: The percentage of the remaining active protein
FGFR1(V561M)(h) = FGFR1(V561M)(h) (Homo sapiens (Human), UniProt P11362, V561M); assay type: biochemical; conditions: read-out: The percentage of the remaining active protein
IGF-1R(h), activated = IGF-1R(h), activated (Homo sapiens (Human), UniProt P08069); assay type: biochemical; conditions: read-out: The percentage of the remaining active protein
IR(h), activated = IR(h), activated (Homo sapiens (Human), UniProt P06213); assay type: biochemical; conditions: read-out: The percentage of the remaining active protein
Lyn(m) = Lyn(m) (Mus musculus (Mouse), UniProt P25911); assay type: biochemical; conditions: read-out: The percentage of the remaining active protein
MAPKAP-K2(h) = MAPKAP-K2(h) (Homo sapiens (Human), UniProt P49137); assay type: biochemical; conditions: read-out: The percentage of the remaining active protein
MELK(h) = MELK(h) (Homo sapiens (Human), UniProt Q14680); assay type: biochemical; conditions: read-out: The percentage of the remaining active protein
Met(Y1248C)(h) = Met(Y1248C)(h) (Homo sapiens (Human), UniProt P08581, Y1248C); assay type: biochemical; conditions: read-out: The percentage of the remaining active protein
Met(Y1248H)(h) = Met(Y1248H)(h) (Homo sapiens (Human), UniProt P08581, Y1248H); assay type: biochemical; conditions: read-out: The percentage of the remaining active protein
MST1(h) = MST1(h) (Homo sapiens (Human), UniProt Q13043); assay type: biochemical; conditions: read-out: The percentage of the remaining active protein
MST3(h) = MST3(h) (Homo sapiens (Human), UniProt Q9Y6E0); assay type: biochemical; conditions: read-out: The percentage of the remaining active protein
PASK(h) = PASK(h) (Homo sapiens (Human), UniProt Q96RG2); assay type: biochemical; conditions: read-out: The percentage of the remaining active protein
PKBγ(h) = PKBγ(h) (Homo sapiens (Human), UniProt Q9Y243); assay type: biochemical; conditions: read-out: The percentage of the remaining active protein
ROCK-I(h) = ROCK-I(h) (Homo sapiens (Human), UniProt Q13464); assay type: biochemical; conditions: read-out: The percentage of the remaining active protein
SAPK4(h) = SAPK4(h) (Homo sapiens (Human), UniProt O15264); assay type: biochemical; conditions: read-out: The percentage of the remaining active protein
SRPK2(h) = SRPK2(h) (Homo sapiens (Human), UniProt P78362); assay type: biochemical; conditions: read-out: The percentage of the remaining active protein
TSSK1(h) = TSSK1(h) (Homo sapiens (Human), UniProt Q9BXA7); assay type: biochemical; conditions: read-out: The percentage of the remaining active protein
WNK2(h) = WNK2(h) (Homo sapiens (Human), UniProt Q9Y3S1); assay type: biochemical; conditions: read-out: The percentage of the remaining active protein
[1] = target: PI3 Kinase (p110a/p65a)(m) (Mus musculus (Mouse), UniProt P42337); assay type: biochemical; conditions: read-out: The percentage of the remaining active protein
[2] = target: PI3 Kinase (p110a(E545K)/p85a)(m) (Mus musculus (Mouse), UniProt P42337, E545K); assay type: biochemical; conditions: read-out: The percentage of the remaining active protein
Arg = Arg (Homo sapiens, UniProt P42684)
Arg, sequence (P42684 2-1182 limits assumed): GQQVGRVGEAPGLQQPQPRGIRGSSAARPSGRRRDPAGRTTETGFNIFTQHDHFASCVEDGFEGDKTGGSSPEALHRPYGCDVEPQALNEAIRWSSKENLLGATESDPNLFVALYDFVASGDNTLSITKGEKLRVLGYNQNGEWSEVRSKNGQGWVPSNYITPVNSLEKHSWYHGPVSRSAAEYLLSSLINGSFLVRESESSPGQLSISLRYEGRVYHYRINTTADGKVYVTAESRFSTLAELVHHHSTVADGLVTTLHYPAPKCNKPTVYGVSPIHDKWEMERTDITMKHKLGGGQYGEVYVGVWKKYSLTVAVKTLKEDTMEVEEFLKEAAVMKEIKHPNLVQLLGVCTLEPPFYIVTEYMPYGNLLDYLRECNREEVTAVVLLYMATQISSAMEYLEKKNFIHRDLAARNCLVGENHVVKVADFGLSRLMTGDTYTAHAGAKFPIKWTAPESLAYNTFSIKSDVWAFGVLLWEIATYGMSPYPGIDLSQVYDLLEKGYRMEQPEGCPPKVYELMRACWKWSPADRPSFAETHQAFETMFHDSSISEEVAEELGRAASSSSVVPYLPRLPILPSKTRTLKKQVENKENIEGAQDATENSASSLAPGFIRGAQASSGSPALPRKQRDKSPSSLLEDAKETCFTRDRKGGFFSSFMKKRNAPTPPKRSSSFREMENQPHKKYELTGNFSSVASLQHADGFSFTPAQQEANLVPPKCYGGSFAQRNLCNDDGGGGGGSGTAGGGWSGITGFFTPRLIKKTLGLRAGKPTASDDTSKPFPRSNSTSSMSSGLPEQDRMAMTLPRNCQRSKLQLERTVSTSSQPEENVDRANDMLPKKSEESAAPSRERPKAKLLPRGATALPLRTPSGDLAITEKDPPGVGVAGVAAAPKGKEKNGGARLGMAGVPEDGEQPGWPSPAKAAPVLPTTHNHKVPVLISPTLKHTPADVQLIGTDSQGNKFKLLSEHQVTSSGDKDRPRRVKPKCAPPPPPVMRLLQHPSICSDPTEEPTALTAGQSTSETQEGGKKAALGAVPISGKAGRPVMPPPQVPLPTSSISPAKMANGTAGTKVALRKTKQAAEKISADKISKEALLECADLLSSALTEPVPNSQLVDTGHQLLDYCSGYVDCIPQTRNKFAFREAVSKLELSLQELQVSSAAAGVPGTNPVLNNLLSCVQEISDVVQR

Flt1, sequence (P17948 27-1338): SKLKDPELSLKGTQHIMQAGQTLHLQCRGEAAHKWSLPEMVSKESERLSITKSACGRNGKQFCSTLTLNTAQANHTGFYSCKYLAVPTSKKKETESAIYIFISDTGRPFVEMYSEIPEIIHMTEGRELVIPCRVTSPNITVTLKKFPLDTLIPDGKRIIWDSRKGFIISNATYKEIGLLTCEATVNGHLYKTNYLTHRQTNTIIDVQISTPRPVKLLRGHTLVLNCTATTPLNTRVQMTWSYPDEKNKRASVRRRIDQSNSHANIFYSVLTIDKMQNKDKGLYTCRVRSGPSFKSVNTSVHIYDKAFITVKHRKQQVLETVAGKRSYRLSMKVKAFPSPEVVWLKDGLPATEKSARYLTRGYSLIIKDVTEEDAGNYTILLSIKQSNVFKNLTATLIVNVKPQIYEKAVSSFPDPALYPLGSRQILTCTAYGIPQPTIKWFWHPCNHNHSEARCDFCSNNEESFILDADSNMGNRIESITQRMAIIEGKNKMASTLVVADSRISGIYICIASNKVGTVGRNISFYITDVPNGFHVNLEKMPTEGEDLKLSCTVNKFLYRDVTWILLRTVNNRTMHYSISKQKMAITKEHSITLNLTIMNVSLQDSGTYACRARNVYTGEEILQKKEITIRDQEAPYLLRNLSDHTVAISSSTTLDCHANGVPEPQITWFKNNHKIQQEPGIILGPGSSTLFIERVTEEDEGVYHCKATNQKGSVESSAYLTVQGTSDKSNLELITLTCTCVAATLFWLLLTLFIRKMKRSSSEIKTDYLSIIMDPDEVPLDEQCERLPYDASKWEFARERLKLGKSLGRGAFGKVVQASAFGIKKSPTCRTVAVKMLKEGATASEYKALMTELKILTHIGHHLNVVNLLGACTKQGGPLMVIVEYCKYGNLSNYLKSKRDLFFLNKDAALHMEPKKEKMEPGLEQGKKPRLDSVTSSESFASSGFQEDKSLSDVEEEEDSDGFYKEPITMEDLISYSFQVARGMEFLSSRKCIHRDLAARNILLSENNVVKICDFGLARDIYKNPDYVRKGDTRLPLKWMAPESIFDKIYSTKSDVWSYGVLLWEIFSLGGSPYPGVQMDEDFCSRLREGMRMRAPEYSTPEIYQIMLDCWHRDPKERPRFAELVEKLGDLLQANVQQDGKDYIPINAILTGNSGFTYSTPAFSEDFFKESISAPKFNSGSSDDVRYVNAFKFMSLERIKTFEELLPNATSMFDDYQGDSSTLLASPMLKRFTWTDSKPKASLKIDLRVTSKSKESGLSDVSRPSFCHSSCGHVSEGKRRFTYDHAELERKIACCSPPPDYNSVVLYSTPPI
ALK6(h), sequence (O00238 14-502): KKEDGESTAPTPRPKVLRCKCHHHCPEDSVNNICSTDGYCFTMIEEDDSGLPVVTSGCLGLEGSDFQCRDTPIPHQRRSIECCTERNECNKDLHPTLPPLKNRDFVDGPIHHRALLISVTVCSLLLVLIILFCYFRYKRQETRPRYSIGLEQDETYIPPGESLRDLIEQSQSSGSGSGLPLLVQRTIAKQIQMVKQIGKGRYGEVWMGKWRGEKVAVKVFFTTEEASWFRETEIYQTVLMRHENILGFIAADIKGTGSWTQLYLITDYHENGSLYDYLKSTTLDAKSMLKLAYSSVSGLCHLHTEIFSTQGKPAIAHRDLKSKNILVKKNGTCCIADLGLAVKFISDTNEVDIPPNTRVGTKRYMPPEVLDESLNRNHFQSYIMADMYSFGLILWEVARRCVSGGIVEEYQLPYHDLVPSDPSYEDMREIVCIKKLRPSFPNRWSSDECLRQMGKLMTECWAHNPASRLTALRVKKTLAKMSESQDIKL
Abl(m), sequence (P00520 whole entry): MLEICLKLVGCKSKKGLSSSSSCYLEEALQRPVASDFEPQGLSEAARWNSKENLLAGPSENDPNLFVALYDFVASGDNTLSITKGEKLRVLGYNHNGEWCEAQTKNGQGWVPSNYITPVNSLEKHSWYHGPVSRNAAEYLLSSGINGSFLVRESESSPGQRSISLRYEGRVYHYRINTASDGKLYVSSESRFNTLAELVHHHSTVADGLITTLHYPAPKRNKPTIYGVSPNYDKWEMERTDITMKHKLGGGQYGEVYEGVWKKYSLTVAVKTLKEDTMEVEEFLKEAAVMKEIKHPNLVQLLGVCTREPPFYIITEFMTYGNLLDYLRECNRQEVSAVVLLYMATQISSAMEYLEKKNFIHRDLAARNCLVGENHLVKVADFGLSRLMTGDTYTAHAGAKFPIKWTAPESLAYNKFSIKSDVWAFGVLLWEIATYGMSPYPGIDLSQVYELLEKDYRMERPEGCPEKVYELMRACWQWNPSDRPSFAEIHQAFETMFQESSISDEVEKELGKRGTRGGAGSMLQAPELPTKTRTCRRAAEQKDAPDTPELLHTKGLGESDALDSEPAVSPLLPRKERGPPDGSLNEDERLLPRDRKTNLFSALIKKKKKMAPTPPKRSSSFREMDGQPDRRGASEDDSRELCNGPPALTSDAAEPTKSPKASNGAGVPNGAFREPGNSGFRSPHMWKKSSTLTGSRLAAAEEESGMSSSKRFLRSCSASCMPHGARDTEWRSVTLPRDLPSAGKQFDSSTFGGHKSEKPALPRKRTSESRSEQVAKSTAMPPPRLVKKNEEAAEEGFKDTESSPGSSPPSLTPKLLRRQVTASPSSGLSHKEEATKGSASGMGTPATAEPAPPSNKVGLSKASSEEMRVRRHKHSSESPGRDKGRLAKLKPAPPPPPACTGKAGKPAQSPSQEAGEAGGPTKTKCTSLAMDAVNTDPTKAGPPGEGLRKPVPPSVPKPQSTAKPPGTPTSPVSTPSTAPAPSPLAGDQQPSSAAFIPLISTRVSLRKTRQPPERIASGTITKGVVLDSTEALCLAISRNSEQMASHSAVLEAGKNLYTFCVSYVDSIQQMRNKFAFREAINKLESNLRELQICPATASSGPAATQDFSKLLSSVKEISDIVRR
CK1γ2(h), sequence (P78368 whole entry): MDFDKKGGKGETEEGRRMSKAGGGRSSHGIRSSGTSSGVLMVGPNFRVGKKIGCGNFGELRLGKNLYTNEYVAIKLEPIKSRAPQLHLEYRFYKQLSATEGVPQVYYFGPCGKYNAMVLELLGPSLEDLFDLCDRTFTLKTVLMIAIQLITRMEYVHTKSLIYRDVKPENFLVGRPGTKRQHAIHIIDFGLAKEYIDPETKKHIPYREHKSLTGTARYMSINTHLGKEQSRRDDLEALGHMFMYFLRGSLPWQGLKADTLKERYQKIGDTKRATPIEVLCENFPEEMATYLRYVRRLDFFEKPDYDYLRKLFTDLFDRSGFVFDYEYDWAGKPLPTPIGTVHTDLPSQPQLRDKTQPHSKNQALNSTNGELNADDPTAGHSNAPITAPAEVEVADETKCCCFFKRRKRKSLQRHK
CaMKIδ(h), sequence (Q8IU85 whole entry): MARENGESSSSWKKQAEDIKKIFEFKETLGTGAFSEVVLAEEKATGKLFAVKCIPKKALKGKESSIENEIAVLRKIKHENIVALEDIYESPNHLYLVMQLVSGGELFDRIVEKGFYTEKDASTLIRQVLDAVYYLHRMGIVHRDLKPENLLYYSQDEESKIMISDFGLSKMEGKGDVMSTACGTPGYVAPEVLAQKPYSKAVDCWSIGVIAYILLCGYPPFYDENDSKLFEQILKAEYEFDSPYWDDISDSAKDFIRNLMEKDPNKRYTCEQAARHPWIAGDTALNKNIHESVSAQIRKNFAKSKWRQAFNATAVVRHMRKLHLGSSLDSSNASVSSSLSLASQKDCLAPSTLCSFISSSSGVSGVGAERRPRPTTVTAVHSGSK

remaining activity at 10 µM (Flt1; Flt1(h), 10 μM, read-out: The percentage of the remaining active protein): 3%
IC50 (Flt1; Flt1, ATP at Km): 15 nM
remaining activity at 10 µM (cKit (D816H)): 1%
remaining activity at 10 µM (EphA5): -1%
remaining activity at 10 µM (ErbB4): -3%
remaining activity at 10 µM (TAO2): 5%
remaining activity at 10 µM (Abl(m)): -2%
remaining activity at 10 µM (ALK1(h)): 71%
remaining activity at 10 µM (ALK6(h)): 18%
remaining activity at 10 µM (CaMKIIβ(h)): 85%
remaining activity at 10 µM (CaMKIδ(h)): 92%
remaining activity at 10 µM (CK1γ2(h)): 114%
remaining activity at 10 µM (CK1γ3(h)): 103%
remaining activity at 10 µM (cKit(D816V)(h)): 9%
remaining activity at 10 µM (DCAMKL3(h)): 101%
remaining activity at 10 µM (DYRK2(h)): 107%
remaining activity at 10 µM (FGFR1(V561M)(h)): 40%
remaining activity at 10 µM (IGF-1R(h), activated): 91%
remaining activity at 10 µM (IR(h), activated): 89%
remaining activity at 10 µM (Lyn(m)): -1%
remaining activity at 10 µM (MAPKAP-K2(h)): 104%
remaining activity at 10 µM (MELK(h)): 23%
remaining activity at 10 µM (Met(Y1248C)(h)): 139%
remaining activity at 10 µM (Met(Y1248H)(h)): 123%
remaining activity at 10 µM (MST1(h)): 109%
remaining activity at 10 µM (MST3(h)): 114%
remaining activity at 10 µM (PASK(h)): 113%
remaining activity at 10 µM (PKBγ(h)): 94%
remaining activity at 10 µM (ROCK-I(h)): 126%
remaining activity at 10 µM (SAPK4(h)): 80%
remaining activity at 10 µM (SRPK2(h)): 107%
remaining activity at 10 µM (TSSK1(h)): 100%
remaining activity at 10 µM (WNK2(h)): 105%
remaining activity at 10 µM [1]: 94%
remaining activity at 10 µM [2]: 87%
IC50 (Arg; Arg, ATP at Km): 4 nM
remaining activity at 10 µM (Arg; read-out: The percentage of the remaining active protein): 0%
SMILES: Cc1ccc(NC(=O)c2ccc(C)c(C(F)(F)F)c2)cc1C#Cc1nn([C@H]2CC[C@H](O)CC2)c2ncnc(N)c12 [Compound 93]
